The values that follow come from patent publication US20130131043A1, “PYRAZOLE COMPOUNDS AS JAK INHIBITORS” (priority 2010, published 2013).

One experiment deals with T1, JAK3 (Homo sapiens, UniProt P52333).
T1 construct: endogenous in cells; host or cells: Molt4 (ATCC CRL-1582) and Ramos (ATCC CRL-1596) cell lysate; mixed Molt4/Ramos lysate 1:2
T1 sequence (P52333 1-1124): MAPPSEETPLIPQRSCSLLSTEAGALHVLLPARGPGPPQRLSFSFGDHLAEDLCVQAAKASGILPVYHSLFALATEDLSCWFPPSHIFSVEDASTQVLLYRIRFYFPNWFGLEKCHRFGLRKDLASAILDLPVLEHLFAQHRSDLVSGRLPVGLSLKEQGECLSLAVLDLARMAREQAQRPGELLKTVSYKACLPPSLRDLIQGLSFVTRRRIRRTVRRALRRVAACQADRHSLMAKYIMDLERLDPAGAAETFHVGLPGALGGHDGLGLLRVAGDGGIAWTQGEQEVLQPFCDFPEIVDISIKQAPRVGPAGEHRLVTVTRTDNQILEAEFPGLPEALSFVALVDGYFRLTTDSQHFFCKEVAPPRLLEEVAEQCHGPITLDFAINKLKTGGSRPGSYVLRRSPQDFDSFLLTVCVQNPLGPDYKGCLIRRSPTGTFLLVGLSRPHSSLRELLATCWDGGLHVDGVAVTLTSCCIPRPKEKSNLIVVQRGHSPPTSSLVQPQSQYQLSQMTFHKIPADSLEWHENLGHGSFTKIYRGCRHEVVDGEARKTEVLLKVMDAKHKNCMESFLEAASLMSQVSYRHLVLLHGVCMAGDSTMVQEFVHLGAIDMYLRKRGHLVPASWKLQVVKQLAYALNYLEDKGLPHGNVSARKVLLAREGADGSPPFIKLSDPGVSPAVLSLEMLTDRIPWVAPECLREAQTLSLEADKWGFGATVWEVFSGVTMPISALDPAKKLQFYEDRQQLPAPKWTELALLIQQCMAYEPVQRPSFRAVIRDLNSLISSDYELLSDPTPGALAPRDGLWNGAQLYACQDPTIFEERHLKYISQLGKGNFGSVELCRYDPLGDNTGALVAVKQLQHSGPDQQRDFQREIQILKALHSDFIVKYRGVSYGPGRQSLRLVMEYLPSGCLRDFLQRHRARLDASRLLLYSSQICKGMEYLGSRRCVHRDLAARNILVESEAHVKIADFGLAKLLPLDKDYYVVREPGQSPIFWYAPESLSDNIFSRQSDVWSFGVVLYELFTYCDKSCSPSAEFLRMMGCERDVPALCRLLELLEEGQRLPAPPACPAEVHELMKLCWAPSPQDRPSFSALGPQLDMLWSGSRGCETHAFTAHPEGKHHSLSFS
The experiment is described as follows: Kinobeads assay, JAK3 (competition binding in cell lysate, dot blot detection). The settings on record: mixed Molt4/Ramos lysate. Summed up: (§1)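 Competition binding of compound against immobilized aminopyrido-pyrimidine affinity beads in mixed Molt4/Ramos lysate (1:2, 10 mg/mL protein), 3 h in cold room. Bead-bound JAK2 or JAK3 eluted and quantified by antibody dot blot with infrared detection; IC50 from 9-step 1:3 dose-response curves.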

Another experiment has as its target T2, JAK2 (Homo sapiens, UniProt O60674).
T2 construct: endogenous in cells; host or cells: Molt4 (ATCC CRL-1582) and Ramos (ATCC CRL-1596) cell lysate; mixed Molt4/Ramos lysate 1:2
In words: Kinobeads assay, JAK2 (competition binding in cell lysate, dot blot detection). The settings on record: mixed Molt4/Ramos lysate. Summed up:
as §1

T2 sequence (O60674 whole entry): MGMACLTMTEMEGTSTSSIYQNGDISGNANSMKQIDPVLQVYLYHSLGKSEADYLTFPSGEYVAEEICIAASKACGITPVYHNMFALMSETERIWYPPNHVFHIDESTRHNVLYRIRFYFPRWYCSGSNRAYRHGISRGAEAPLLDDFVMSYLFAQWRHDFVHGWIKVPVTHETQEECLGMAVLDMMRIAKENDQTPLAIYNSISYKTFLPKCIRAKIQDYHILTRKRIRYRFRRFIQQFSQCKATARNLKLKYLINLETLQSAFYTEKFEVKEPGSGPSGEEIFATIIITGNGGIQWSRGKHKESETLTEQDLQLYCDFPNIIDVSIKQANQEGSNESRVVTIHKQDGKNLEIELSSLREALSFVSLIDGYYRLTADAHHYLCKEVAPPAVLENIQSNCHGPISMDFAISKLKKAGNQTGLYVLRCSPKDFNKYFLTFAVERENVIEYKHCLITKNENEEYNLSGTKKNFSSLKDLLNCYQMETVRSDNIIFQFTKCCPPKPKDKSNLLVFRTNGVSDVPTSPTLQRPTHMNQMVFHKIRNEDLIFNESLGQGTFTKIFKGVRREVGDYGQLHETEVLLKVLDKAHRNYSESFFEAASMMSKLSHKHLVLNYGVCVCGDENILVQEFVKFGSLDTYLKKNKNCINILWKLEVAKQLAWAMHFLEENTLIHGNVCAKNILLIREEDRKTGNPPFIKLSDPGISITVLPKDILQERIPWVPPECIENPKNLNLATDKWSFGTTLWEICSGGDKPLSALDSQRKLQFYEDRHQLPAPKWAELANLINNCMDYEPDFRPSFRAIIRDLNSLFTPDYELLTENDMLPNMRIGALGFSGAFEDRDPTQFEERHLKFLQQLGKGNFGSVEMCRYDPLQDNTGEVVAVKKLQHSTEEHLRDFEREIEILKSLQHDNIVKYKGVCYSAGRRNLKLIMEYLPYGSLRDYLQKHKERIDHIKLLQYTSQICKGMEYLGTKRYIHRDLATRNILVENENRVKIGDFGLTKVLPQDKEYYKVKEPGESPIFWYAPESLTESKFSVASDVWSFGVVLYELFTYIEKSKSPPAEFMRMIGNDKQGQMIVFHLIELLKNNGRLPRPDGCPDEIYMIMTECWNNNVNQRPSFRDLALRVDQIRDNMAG

As for `CC(C)NC(=O)CN1CCC(Cn2ncc3cnc(Nc4cnn(C)c4)nc32)C1` (stereo not drawn) [Example 68, N-isopropyl-2-(3-((6-((1-methyl-1H-pyrazol-4-yl)amino)-1H-pyrazolo[3,4-d]pyrimidin-1-yl)methyl)pyrrolidin-1-yl)acetamide], the IC50 was 100 to 1000 nM at JAK3 and more than 10000 nM at JAK2.
`CCS(=O)(=O)N1CCCC(Cn2ncc3cnc(Nc4cnn(C)c4)nc32)C1` (stereo not drawn) [Example 31, 1-((1-(ethylsulfonyl)piperidin-3-yl)methyl)-N-(1-methyl-1H-pyrazol-4-yl)-1H-pyrazolo[3,4-d]pyrimidin-6-amine]: the IC50 at JAK3 was less than 100 nM; on JAK2, 1000 to 10000 nM.
For `Cn1cc(Nc2ncc3cnn(C4CCN(S(C)(=O)=O)CC4)c3n2)cn1` [Example 3, N-(1-methyl-1H-pyrazol-4-yl)-1-(1-(methylsulfonyl)piperidin-4-yl)-1H-pyrazolo[3,4-d]pyrimidin-6-amine], the IC50 was in the range of 100 to 1000 nM at JAK3 and 1000 to 10000 nM on JAK2.
Regarding `Cn1cc(Nc2ncc3cnn(CC4CCN(CCC#N)C4)c3n2)cn1` (stereo not drawn) [Example 53, 3-(3-((6-((1-methyl-1H-pyrazol-4-yl)amino)-1H-pyrazolo[3,4-d]pyrimidin-1-yl)methyl)pyrrolidin-1-yl)propanenitrile], the half-maximal inhibitory concentration (IC50) was less than 100 nM at JAK3 and 1000 to 10000 nM on JAK2.
For `CCOC(=O)N1CCCC(Cn2ncc3cnc(Nc4cnn(C)c4)nc32)C1` (stereo not drawn) [Example 36, ethyl 3-((6-((1-methyl-1H-pyrazol-4-yl)amino)-1H-pyrazolo[3,4-d]pyrimidin-1-yl)methyl)piperidine-1-carboxylate] the same measures were 100 to 1000 nM and more than 10000 nM.
For the molecule `Cn1cc(Nc2ncc3cnn(C4CCCN(C(=O)CC#N)C4)c3n2)cn1` (stereo not drawn) [Example 25, 3-(3-(6-((1-methyl-1H-pyrazol-4-yl)amino)-1H-pyrazolo[3,4-d]pyrimidin-1-yl)piperidin-1-yl)-3-oxopropanenitrile], the IC50 is 100 to 1000 nM at JAK3 and more than 10000 nM at JAK2.
Take `C[C@H]1CCCC[C@@H]1n1ncc2cnc(Nc3cnn(C)c3)nc21` (racemic) [Example 7, Rac-trans-N-(1-methyl-1H-pyrazol-4-yl)-1-(2-methylcyclohexyl)-1H-pyrazolo[3,4-d]pyrimidin-6-amine]: the figures for the IC50 at JAK3 and at JAK2 were less than 100 nM and 1000 to 10000 nM, respectively.
For the molecule `CSCCN1CCCC(Cn2ncc3cnc(Nc4cnn(C)c4)nc32)C1` (stereo not drawn) [Example 37, N-(1-methyl-1H-pyrazol-4-yl)-1-((1-(2-(methylthio)ethyl)piperidin-3-yl)methyl)-1H-pyrazolo[3,4-d]pyrimidin-6-amine], the IC50 at JAK3 is less than 100 nM; on JAK2 it was more than 10000 nM.
As for `C[C@H]1CCCC[C@H]1n1ncc2cnc(Nc3cnn(C)c3)nc21` (racemic) [Example 11, Rac-cis-N-(1-methyl-1H-pyrazol-4-yl)-1-(2-methylcyclohexyl)-1H-pyrazolo[3,4-d]pyrimidin-6-amine], the IC50 at JAK3 is 100 to 1000 nM; at JAK2 it was 1000 to 10000 nM.
Turning to `CCN1CCCC(Cn2ncc3cnc(Nc4cnn(C)c4)nc32)C1` (stereo not drawn) [Example 55, 1-((1-ethylpiperidin-3-yl)methyl)-N-(1-methyl-1H-pyrazol-4-yl)-1H-pyrazolo[3,4-d]pyrimidin-6-amine], the IC50 is less than 100 nM on JAK3 and 1000 to 10000 nM on JAK2.
As for `COCCC(=O)N1CCCC(Cn2ncc3cnc(Nc4cnn(C)c4)nc32)C1` (stereo not drawn) [Example 27, 3-methoxy-1-(3-((6-((1-methyl-1H-pyrazol-4-yl)amino)-1H-pyrazolo[3,4-d]pyrimidin-1-yl)methyl)piperidin-1-yl)propan-1-one], the IC50 fell in the range of 100 to 1000 nM at JAK3 and 1000 to 10000 nM on JAK2.
Take `COCCOC(=O)N1CCCC(Cn2ncc3cnc(Nc4cnn(C)c4)nc32)C1` (stereo not drawn) [Example 45, 2-methoxyethyl 3-((6-((1-methyl-1H-pyrazol-4-yl)amino)-1H-pyrazolo[3,4-d]pyrimidin-1-yl)methyl)piperidine-1-carboxylate]: the IC50 on JAK3 was 100 to 1000 nM; on JAK2 it was more than 10000 nM.
